# Earlier results, collected in article PMC11822664, “First‐In‐Human Dose Finding Study of Venadaparib (IDX‐1197), a Potent and Selective PARP Inhibitor, in Patients With Advanced Solid Tumors” (Cancer Medicine, 2025).
# Tests used:
# [1] = test system: patients with advanced ovarian cancer; details: cited from earlier work
# PARP = details: olaparib phase I trial ref 22; cited from earlier work
# [2] = advanced ovarian cancer with ≥ 2 prior systemic treatments ref 33
compound,measurement,setting,value
O=C(c1cc(Cc2n[nH]c(=O)c3ccccc23)ccc1F)N1CCN(C(=O)C2CC2)CC1 [olaparib],Anemia incidence,[1]; advanced ovarian cancer ref 33,46%
same,Neutropenia incidence,[1]; advanced ovarian cancer ref 33,24%
same,Nausea incidence,[1]; [2],approximately 76%
same,Vomiting incidence,[1]; [2],~40%
same,Dose from which clinical benefit started,PARP,≥ 100 mg twice daily (BID)
